Experimental data published in US6673839B1, “Pharmaceutical compositions with antitumour activity” (Universita' Degli Studi di Catania, priority 1998, dated 2004).
Counter-ions that a name gives are not always drawn.

Tested on: cells from 4 primitive epidermoid carcinomas of the larynx and 1 primitive undifferentiated carcinoma of the nasopharynx
Assay: Effects of L-aC on cell cycle of cultured primitive human tumour cells (cytofluorimetric analysis)
Assay type: cell-based
Experimental: The effects of L-aC on cells from 4 primitive epidermoid carcinomas of the larynx and 1 primitive undifferentiated carcinoma of the nasopharynx were tested.
Tissue fragments from the tumour mass were mechanically dissociated in Hank's solutions adding an antibiotic and an antifungal to obtain a cell monosuspension free of agglomerates. The resulting suspension was centrifuged at 1200 rpm for 5 m′ and the pellet was resuspended in MEM culture medium supplemented with 10% of patient serum, to obtain a concentration of 2−3×10^4 cells/ml of medium. 1 ml Samples were prepared from the suspension, in amounts equivalent to the number of the concentrations to be assayed (0.2-20 mg/ml) as well as a control sample.
The suspensions were exposed to the medicament in Dubnoff bath at 37° C. for 24 h, then centrifuged and resuspended in 1 ml of fixing solution (tris buffer+methanol (1:3)) for 30 minutes and finally stained with 0.5% propyl iodide with simultaneous treatment with RNase.
Cytofluorimetric analysis in order to evaluate the percentage distribution of the cell cycle phases, was performed by an Ortho Diagnostic Spectrum III cytofluorigraph, equipped with Graphic Method computerized program.
The evaluation of the cell sensitivity to the medicament was based on the extent of the perturbations induced by L-aC on the cell cycle.

## CC(=O)OC(CC(=O)[O-])C[N+](C)(C)C [L-aC, L-acetylcarnitine hydrochloride]
0.2 mg/ml, 24 h, all samples
  increase in the percentage of S phase cells compared with the control: about 10%
20 mg/ml, 24 h
  effect on cell cycle: block in the percentage of the cells in G1 phase
20 mg/ml, tumour with pre-treatment ratio 31/69
  G1/S+G2M ratio after the treatment: 70/30
